Details: 303.15 K, Liquid, Vibrating tube method

CCCCC(=O)OCC(COC(=O)CCCC)(COC(=O)CCCC)COC(=O)CCCC [pentaerythritol tetrapentanoate]
Details	mass density [kg/m3]
751.89 kPa	1011.3
752.93 kPa	1011.3
753.46 kPa	1011.4
754.85 kPa	1011.5
756.07 kPa	1011.3
757.1 kPa	1011.2
758.15 kPa	1011.2
759.55 kPa	1011.4
760.59 kPa	1011.3
761.46 kPa	1011.3
762.5 kPa	1011.4
763.72 kPa	1011.3
764.76 kPa	1011.3
765.97 kPa	1011.4
767.19 kPa	1011.3
768.22 kPa	1011.4
769.27 kPa	1011.3
770.14 kPa	1011.4
771.18 kPa	1011.4
772.57 kPa	1011.4
773.96 kPa	1011.4
775 kPa	1011.3
776.04 kPa	1011.3
777.44 kPa	1011.4
778.31 kPa	1011.3
779.51 kPa	1011.4
781.59 kPa	1011.4
782.99 kPa	1011.3
784.03 kPa	1011.3
785.06 kPa	1011.2
786.46 kPa	1011.3
787.68 kPa	1011.4
788.72 kPa	1011.4
790.1 kPa	1011.3
793.58 kPa	1011.4
796.19 kPa	1011.4
797.22 kPa	1011.4
798.28 kPa	1011.4
799.66 kPa	1011.4
800.87 kPa	1011.4
802.26 kPa	1011.3
803.13 kPa	1011.3
804.36 kPa	1011.3
806.1 kPa	1011.3
807.3 kPa	1011.2
808.17 kPa	1011.4
809.57 kPa	1011.4
810.78 kPa	1011.4
811.81 kPa	1011.4
813.39 kPa	1011.4
814.44 kPa	1011.4
815.81 kPa	1011.4
816.86 kPa	1011.3
818.08 kPa	1011.4
819.64 kPa	1011.3
820.86 kPa	1011.4
822.25 kPa	1011.3
823.47 kPa	1011.4
824.68 kPa	1011.4
826.25 kPa	1011.3
827.28 kPa	1011.4
828.32 kPa	1011.4
830.07 kPa	1011.4
831.46 kPa	1011.3
832.68 kPa	1011.3
834.23 kPa	1011.4
835.46 kPa	1011.3
836.32 kPa	1011.3
837.71 kPa	1011.3
839.27 kPa	1011.4
840.67 kPa	1011.4
841.53 kPa	1011.4
843.1 kPa	1011.5
844.31 kPa	1011.4
846.05 kPa	1011.4
847.44 kPa	1011.4
848.82 kPa	1011.4
850.22 kPa	1011.5
851.43 kPa	1011.4
852.99 kPa	1011.3
854.55 kPa	1011.4
855.43 kPa	1011.3
856.64 kPa	1011.4
858.56 kPa	1011.4
859.94 kPa	1011.3
861.33 kPa	1011.4
862.89 kPa	1011.4
864.28 kPa	1011.4
865.5 kPa	1011.5
866.89 kPa	1011.3
868.64 kPa	1011.3
869.85 kPa	1011.3
871.4 kPa	1011.4
872.8 kPa	1011.3
874.36 kPa	1011.4
875.58 kPa	1011.4
877.31 kPa	1011.4
878.7 kPa	1011.3
880.09 kPa	1011.4
881.48 kPa	1011.3
882.37 kPa	1011.5
884.28 kPa	1011.4
885.67 kPa	1011.4
886.88 kPa	1011.4
888.45 kPa	1011.5
890 kPa	1011.4
891.23 kPa	1011.4
892.79 kPa	1011.4
894.35 kPa	1011.5
895.75 kPa	1011.3
897.31 kPa	1011.5
899.39 kPa	1011.5
900.97 kPa	1011.4
902.17 kPa	1011.4
903.4 kPa	1011.4
904.79 kPa	1011.4
906.87 kPa	1011.4
908.62 kPa	1011.4
910 kPa	1011.4
911.39 kPa	1011.4
913.13 kPa	1011.4
914.69 kPa	1011.5
916.25 kPa	1011.5
917.82 kPa	1011.4
919.55 kPa	1011.4
921.29 kPa	1011.4
922.68 kPa	1011.4
924.26 kPa	1011.5
925.81 kPa	1011.4
927.54 kPa	1011.6
929.11 kPa	1011.4
931.03 kPa	1011.4
932.76 kPa	1011.6
934.31 kPa	1011.4
936.05 kPa	1011.5
937.62 kPa	1011.4
939.53 kPa	1011.5
941.27 kPa	1011.5
943 kPa	1011.4
944.4 kPa	1011.5
946.13 kPa	1011.4
947.18 kPa	1011.5
949.26 kPa	1011.4
950.82 kPa	1011.4
952.73 kPa	1011.5
954.48 kPa	1011.5
956.38 kPa	1011.4
958.11 kPa	1011.4
960.21 kPa	1011.4
961.77 kPa	1011.5
963.32 kPa	1011.5
965.24 kPa	1011.4
967.49 kPa	1011.5
969.05 kPa	1011.5
970.44 kPa	1011.4
972.01 kPa	1011.5
974.27 kPa	1011.4
976.34 kPa	1011.4
977.92 kPa	1011.4
979.13 kPa	1011.6
981.39 kPa	1011.5
983.3 kPa	1011.5
985.21 kPa	1011.5
987.46 kPa	1011.4
989.21 kPa	1011.5
990.77 kPa	1011.5
992.34 kPa	1011.5
994.41 kPa	1011.4
996.16 kPa	1011.4
998.06 kPa	1011.5
1000.1 kPa	1011.3
1002.1 kPa	1011.3
1004.3 kPa	1011.4
1005.9 kPa	1011.4
1007.8 kPa	1011.4
1009.4 kPa	1011.5
1011.3 kPa	1011.5
1014 kPa	1011.5
1015.8 kPa	1011.5
1017.3 kPa	1011.5
1019.2 kPa	1011.5
1021.5 kPa	1011.4
1023.4 kPa	1011.5
1025.3 kPa	1011.5
1027.4 kPa	1011.6
1029.5 kPa	1011.5
1031.2 kPa	1011.6
1033.5 kPa	1011.5
1035.6 kPa	1011.5
1036.8 kPa	1011.4
1039.1 kPa	1011.5
1041.1 kPa	1011.6
1042.9 kPa	1011.6
1045 kPa	1011.5
1047.6 kPa	1011.6
1049.5 kPa	1011.5
1051.4 kPa	1011.4
1053.7 kPa	1011.5
1055.7 kPa	1011.5
1058 kPa	1011.5
1059.7 kPa	1011.5
1062.2 kPa	1011.5
1064.4 kPa	1011.5
1066.7 kPa	1011.6
1068.7 kPa	1011.5
1071 kPa	1011.5
1072.9 kPa	1011.6
1075.2 kPa	1011.5
1077.2 kPa	1011.5
1078.8 kPa	1011.5
1081.6 kPa	1011.5
1083.8 kPa	1011.5
1085.9 kPa	1011.5
1088 kPa	1011.6
1090.6 kPa	1011.6
1092.7 kPa	1011.6
1095 kPa	1011.5
1097.4 kPa	1011.5
1099.5 kPa	1011.5
1101.7 kPa	1011.5
1104 kPa	1011.6
1106.4 kPa	1011.5
1108.7 kPa	1011.5
1111.1 kPa	1011.5
1113.4 kPa	1011.5
1116 kPa	1011.5
1117.9 kPa	1011.5
1120.7 kPa	1011.6
1122.8 kPa	1011.6
1124.8 kPa	1011.5
1127.3 kPa	1011.5
1129.7 kPa	1011.5
1132.3 kPa	1011.6
1134.6 kPa	1011.7
1137.5 kPa	1011.5
1139.8 kPa	1011.6
1141.8 kPa	1011.5
1144.1 kPa	1011.7
1147.1 kPa	1011.4
1149.3 kPa	1011.6
1151.6 kPa	1011.6
1153.8 kPa	1011.5
1156.6 kPa	1011.6
1159 kPa	1011.6
1162.2 kPa	1011.6
1164.3 kPa	1011.8
1166.9 kPa	1011.6
1169.3 kPa	1011.6
1171.7 kPa	1011.7
1174.3 kPa	1011.6
1176.6 kPa	1011.5
1179.2 kPa	1011.6
1182 kPa	1011.6
1184.7 kPa	1011.6
1187.2 kPa	1011.7
1190.1 kPa	1011.7
1192.6 kPa	1011.7
1195.2 kPa	1011.6
1198.1 kPa	1011.6
1200.7 kPa	1011.6
1203.2 kPa	1011.6
1206.3 kPa	1011.6
1208.5 kPa	1011.6
1211.3 kPa	1011.6
1213.9 kPa	1011.6
1216.9 kPa	1011.7
1219.5 kPa	1011.7
1222.1 kPa	1011.6
1224.7 kPa	1011.7
1227.8 kPa	1011.7
1230.6 kPa	1011.7
1233.4 kPa	1011.6
1236.1 kPa	1011.6
1239.1 kPa	1011.7
1241.9 kPa	1011.6
1244.7 kPa	1011.6
1248 kPa	1011.6
1250.6 kPa	1011.7
1253.5 kPa	1011.6
1256.1 kPa	1011.6
1259.1 kPa	1011.6
1262 kPa	1011.6
1265 kPa	1011.7
1268.1 kPa	1011.6
1271 kPa	1011.6
1274 kPa	1011.7
1277 kPa	1011.6
1279.4 kPa	1011.6
1283 kPa	1011.7
1286 kPa	1011.7
1289.1 kPa	1011.6
1292.6 kPa	1011.7
1296 kPa	1011.7
1299.7 kPa	1011.6
1302.8 kPa	1011.7
1305.6 kPa	1011.7
1308.5 kPa	1011.6
1312.2 kPa	1011.7
1315 kPa	1011.8
1318.1 kPa	1011.7
1321.4 kPa	1011.7
1324.3 kPa	1011.7
1327.8 kPa	1011.6
1331.1 kPa	1011.7
1334.2 kPa	1011.8
1337.4 kPa	1011.6
1340.5 kPa	1011.6
1343.8 kPa	1011.7
1347.3 kPa	1011.8
1350.2 kPa	1011.7
1354.2 kPa	1011.7
1357.2 kPa	1011.6
1360.5 kPa	1011.7
1363.6 kPa	1011.7
1367.4 kPa	1011.7
1371.1 kPa	1011.7
1373.8 kPa	1011.7
1377.5 kPa	1011.7
1381.3 kPa	1011.8
1384.2 kPa	1011.7

From the NIST ThermoML archive (doi:10.1021/je060271a)
